Data: publication PMC11355573, “A New Renieramycin T Right-Half Analog as a Small Molecule Degrader of STAT3” (Marine Drugs, 2024)

What was measured:
[1] = tested on: EMT markers (ZO1, Slug, Snail, N-cadherin, Vimentin) in H460 cells; test: Western blot of EMT markers; assay type: cell-based, human
Text: (§1) EMT is a biological process that is associated with cancer progression and the spread of cancer cells to other parts of the body. This mechanism facilitates the motility of cancer cells, enhances anoikis resistance, and contributes to poor prognosis due to its high metastatic potential. Given the critical role of EMT in the metastasis processes, we firstly investigated EMT markers. Therefore, to validate that DH_31 inhibits metastasis, H460 cells were selected to elucidate the mechanism because of their enhanced migration and invasion behavior [36]. H460 cells were exposed to the non-toxic concentration range of 0–2.5 µM of DH_31 for 24 h. Subsequently, the evaluation of EMT expression levels was carried out through the application of immunofluorescence assay and Western blotting. We further investigated key hallmarks of EMT, specifically the reduction in the expression levels of epithelial marker (ZO1) and the increase in the expression levels of mesenchymal markers (Slug, Snail, ZEB1, N-cadherin, and Vimentin). […] The expressions of Snail, N-cadherin, and Vimentin were reduced in a concentration-dependent manner. […] Furthermore, the results from the Western blot analysis confirmed the findings from immunofluorescence staining (Figure 3C). […] The protein alterations in response to DH_31 were clarified.
Western blot analysis was performed to detect and quantify specific proteins in a sample. H460 cells (4.0 × 10^5 cells per well) were seeded in 6 well plates. Following overnight incubation, the cells were treated with different concentrations of DH_31 (0–2.5 μM) for 24 h at 37 °C. After treatment, the cell lysates were isolated using a 1 × RIPA buffer containing a protease inhibitor cocktail for 45 min at 4 °C. The protein content was determined using the BCA protein assay kit. For the Western blot assay, an equal amount of the denatured proteins from cell lysates was separated by electrophoresis on 10 or 12% SDS-PAGE and transferred to 0.2 µm polyvinylidene difluoride (PVDF) membranes (Bio-Rad Laboratories, Hercules, CA, USA). After the membranes were blocked with 5% skim milk, they were then incubated overnight with specific primary antibodies at 4 °C. Subsequently, the membranes were incubated with HRP-conjugated secondary antibodies for 1 h at room temperature. Protein bands were visualized using SuperSignal^TM West Pico PLUS Chemiluminescent Substrate. The protein intensity was analyzed using ImageJ™ software (Image J 1.52a, Rasband, W., National Institutes of Health, Bethesda, MD, USA).

[2] = tested on: EMT markers (ZO1, ZEB1, Slug, Snail, N-cadherin, Vimentin) in H460 cells; test: Immunofluorescence staining of EMT markers; assay type: cell-based, human
Text: as §1
Immunofluorescence staining and confocal microscopy were conducted to visualize the subcellular localization and spatial distribution of specific proteins. H460 cells (1.0 × 10^4 cells per well) were seeded in 96-well plates. Following overnight incubation, the cells were treated with different concentrations of DH_31 (0–2.5 μM) for 24 h at 37 °C. After treatment, the cells were permeabilized with 0.5% Triton-X in PBS for 5 min, followed by the blocking of non-specific proteins with 10% FBS in 0.1% Triton-X PBS for 1 h at room temperature. Subsequently, the cells were exposed to primary antibodies (STAT3, Slug, Snail, Vimentin, N-cadherin, ZO1, and ZEB1) and incubated at 4 °C overnight. The cells were then incubated with Alexa Fluor 488- or 594-conjugated secondary antibodies and Hoechst 33342 for 1 h at room temperature. After washing with PBS, the cells were covered with 50% glycerol. The images were captured by confocal microscopy (Zeiss, Jena, Germany). The fluorescence intensity was measured using ImageJ™ software (Image J 1.52a, Rasband, W., National Institutes of Health, Bethesda, MD, USA).

SMILES: COc1c(C)cc2c(c1O)[C@@H]1CN(Cc3ccc4ccccc4c3)[C@@H](C#N)[C@H](C2)N1C [DH_31, (1R,4R,5S)-10-hydroxy-9-methoxy-8,11-dimethyl-3-(naphthalen-2-ylmethyl)-1,2,3,4,5,6-hexahydro-1,5-epiminobenzo[d]azocine-4-carbonitrile]
- Snail expression (Western blot) ([1]; H460, 1 µM (p < 0.05) and 2.5 µM (p < 0.01), 24 h): reduced
- N-cadherin expression (Western blot) ([1]; H460, 2.5 µM, 24 h (p < 0.05)): reductions
- Slug expression (Western blot) ([1]; H460, 2.5 µM, 24 h (p < 0.05)): reductions
- Vimentin expression (Western blot) ([1]; H460, 2.5 µM, 24 h (p < 0.05)): reductions
- ZO1 level (immunofluorescence) ([2]; H460, 0–2.5 µM, 24 h): slightly increased
- Vimentin level (immunofluorescence) ([2]; H460, 1 μM (p < 0.01) and 2.5 μM (p < 0.001), 24 h): significant reduction
- N-cadherin level (immunofluorescence) ([2]; H460, 1 μM (p < 0.05) and 2.5 μM (p < 0.001), 24 h): significant reduction
- Snail level (immunofluorescence) ([2]; H460, 1 μM and 2.5 μM, 24 h (p < 0.05)): significant reduction
- Slug protein level (immunofluorescence) ([2]; H460, 2.5 µM, 24 h (p < 0.05)): significant decrease
- ZEB1 protein level (immunofluorescence) ([2]; H460, 2.5 µM, 24 h (p < 0.05)): significant decrease
